“And” between values parts separate entries of the source, which are not always exact repeats. Equal values may be shown once.
Columns and labels:
Format in all cases: cell-based, HIV
BRU virus (clade B) = test: Number of syncitia in MT4 cell culture infected by BRU virus; design: key: the absence of syncitia is indicated by a minus (−) sign; the (+), +, ++, ++T signs indicate an increasing number of syncitia in each well; the (+), +, ++, ++T signs indicate an increasing number of syncitia in each well; the (+), +, ++, ++T signs indicate an increasing number of syncitia in each well; the (+), +, ++, ++T signs indicate an increasing number of syncitia in each well; The indication “T” indicates the death of the cells; settings: 0.01 μM; for Number of Syncitia in the Culture (wells), J3: day 3; for Number of Syncitia in the Culture (wells), J4: day 4; for Number of Syncitia in the Culture (wells), J5: day 5; for Number of Syncitia in the Culture (wells), J6: day 6; for Number of Syncitia in the Culture (wells), J7: day 7
Procedure: either by the observation, as a function of the quantity of sulphated polysaccharide used and of the time of said use, which can be made before, during or after infection, or even continuously, and of the reduction of the number of syncitia appearing in a culture of MT4 cells following infection by a HIV retrovirus (example 2A),
(§1) Then infection of the cells was carried out by adding to each well, with the exception of those wells being used as control cells, 50 μL of previously titrated virus dilution.
(§2) After an additional hour of incubation, the plate was centrifuged and the supernatant containing the residual virus was discarded.
(§3) After 3 days of culture, the cells were diluted to half and the syncitia were observed using the inverse microscope from day 3 to day 7 after having been placed in suspension.
(§4) In the third case, the MT4 cell culture was preincubated for one hour at 37° C., then the cells were infected, the whole was subjected to incubation for one hour at 37° C., then to centrifugation with the elimination of the supernatant containing the virus that had not penetrated into the cells.
The washings and rinsings were done using RPMI without foetal calf serum.
(§5) In each of the four types of experiments that have just been described, and as previously indicated, the cells were diluted to half after three days of culture and then the syncitia were observed using the inverted microscope from day 3 to day 7.
(§6) In the experiments described in greater detail hereinafter, the absence of syncitia is indicated by a minus (−) sign and the (+), +, ++, ++T signs indicate an increasing number of syncitia in each well.
(§7) The indication “T” indicates the death of the cells.
The BRU virus (clade B) was used for infecting the MT4 cells at a viral dilution of 10^5, which corresponds to the quantity of viral particles capable of infecting 80% of the MT4 cultures (Tissue Culture Infections Dose 80%, TCID80%).

[1] = test system: RTMC virus (clade B), resistant to AZT; test: RT activity in supernatant and cell number of CEM cells infected by RTMC virus; settings: 0.1 μM, RMTC viral dilution 5 · 10^−4
Procedure: The cells were counted every three days and the cultures diluted with a view of culturing 0.5*10^6 cells/mL; the RT activity assay was done following a protocol comprising:
measurement of the radioactivity of the DNA synthesized, said radioactivity being proportional to the quantity of tritiated thymidine incorporated into said synthesized DNA, which itself is proportional to RT activity and thus to the number of viruses produced by replication.
The contents (1 mL) of each well was centrifuged for 5 minutes at 1500 r.p.m. (Jouan GR 422 centrifuge) and then the culture supernatant obtained was ultracentrifuged at 4° C., 95000 r.p.m. (Beckman TL100 ultracentrifuge) in order to obtain the viral pellet.
The viral pellet was then placed in a test tube containing 10 μL of NTE buffer to which 0.1% of triton was added, which releases the viral enzymes, particularly RT; the tube was then vortexed, covered with parafilm and held for 10 minutes at 4° C. and then frozen at −20° C.
As many test tubes containing this reaction mixture were prepared as there were samples to be tested. […]
The amount of radioactivity that was measured is proportional to the RT activity present and, consequently, to the number of viruses produced by replication. […]

NDK virus = test: Number of syncitia in MT4 cell culture infected by NDK virus; design: key to Number of Syncitia in the Culture (wells), J3 / Number of Syncitia in the Culture (wells), J4 / Number of Syncitia in the Culture (wells), J5 / Number of Syncitia in the Culture (wells), J6: the absence of syncitia is indicated by a minus (−) sign; the (+), +, ++, ++T signs indicate an increasing number of syncitia in each well; the (+), +, ++, ++T signs indicate an increasing number of syncitia in each well; the (+), +, ++, ++T signs indicate an increasing number of syncitia in each well; the (+), +, ++, ++T signs indicate an increasing number of syncitia in each well; The indication “T” indicates the death of the cells; settings: for Number of Syncitia in the Culture (wells), J3: day 3; for Number of Syncitia in the Culture (wells), J4: day 4; for Number of Syncitia in the Culture (wells), J5: day 5; for Number of Syncitia in the Culture (wells), J6: day 6
Procedure: as §1, §2, §3, §4, §5, §6, §7

[2] = Continuous, before, during and after infection
[3] = Continuous, before, during and after infection, 0.4 μm

3′-azidothymidine [AZT]
0.4 10^6 Cell/mL and 0.8 10^6 Cell/mL: Number of cells per mL, D10 ([1]; day 10)
++T: Number of Syncitia in the Culture (wells), J7 (BRU virus (clade B); Before infection) | Number of Syncitia in the Culture (wells), J7 (BRU virus (clade B); During infection)
−: Number of Syncitia in the Culture (wells), J3 (BRU virus (clade B); After infection) | Number of Syncitia in the Culture (wells), J4 (BRU virus (clade B); After infection) | Number of Syncitia in the Culture (wells), J5 (BRU virus (clade B); After infection) | Number of Syncitia in the Culture (wells), J6 (BRU virus (clade B); After infection) | Number of Syncitia in the Culture (wells), J7 (BRU virus (clade B); After infection) | Number of Syncitia in the Culture (wells), J3 (BRU virus (clade B); Before infection) | Number of Syncitia in the Culture (wells), J3 (BRU virus (clade B); [2]) | Number of Syncitia in the Culture (wells), J4 (BRU virus (clade B); [2]) | Number of Syncitia in the Culture (wells), J5 (BRU virus (clade B); [2]) | Number of Syncitia in the Culture (wells), J6 (BRU virus (clade B); [2]) | Number of Syncitia in the Culture (wells), J7 (BRU virus (clade B); [2]) | Number of Syncitia in the Culture (wells), J3 (BRU virus (clade B); During infection) | Number of Syncitia in the Culture (wells), J3 (NDK virus; After infection, 0.4 μm) | Number of Syncitia in the Culture (wells), J4 (NDK virus; After infection, 0.4 μm) | Number of Syncitia in the Culture (wells), J5 (NDK virus; After infection, 0.4 μm) | Number of Syncitia in the Culture (wells), J6 (NDK virus; After infection) | Number of Syncitia in the Culture (wells), J3 (NDK virus; Before infection, 0.4 μg/mL) | Number of Syncitia in the Culture (wells), J3 (NDK virus; [3]) | Number of Syncitia in the Culture (wells), J4 (NDK virus; [3]) | Number of Syncitia in the Culture (wells), J5 (NDK virus; [3]) | Number of Syncitia in the Culture (wells), J6 (NDK virus; [2]) | Number of Syncitia in the Culture (wells), J3 (NDK virus; During infection, 0.4 μm) | Number of Syncitia in the Culture (wells), J4 (NDK virus; During infection, 0.4 μm) | Number of Syncitia in the Culture (wells), J5 (NDK virus; During infection, 0.4 μm) | Number of Syncitia in the Culture (wells), J6 (NDK virus; During infection)
+: Number of Syncitia in the Culture (wells), J5 (BRU virus (clade B); During infection)
++ and +: Number of Syncitia in the Culture (wells), J5 (BRU virus (clade B); Before infection)
+ and −: Number of Syncitia in the Culture (wells), J4 (NDK virus; Before infection, 0.4 μg/mL)
T and (+): Number of Syncitia in the Culture (wells), J6 (NDK virus; Before infection, 0.4 μg/mL)
++: Number of Syncitia in the Culture (wells), J6 (BRU virus (clade B); During infection)
++ and −: Number of Syncitia in the Culture (wells), J5 (NDK virus; Before infection, 0.4 μg/mL)
++T and ++: Number of Syncitia in the Culture (wells), J6 (BRU virus (clade B); Before infection)
2.7 10^6 Cell/mL and 3.3 10^6 Cell/mL: Number of cells per mL, D3 ([1]; day 3)
(+): Number of Syncitia in the Culture (wells), J4 (BRU virus (clade B); Before infection) | Number of Syncitia in the Culture (wells), J4 (BRU virus (clade B); During infection)

From patent US20080269162A1, “Novel Medicaments for Anti-Retroviral Treatments” (priority 2006, published 2008)
